Each structure is given as a SMILES string. “Also recorded” adds a separate entry of the source.

As usually defined, the Ki is the dissociation constant of the complex between target and ligand, obtained from inhibition or displacement. For orientation: IC50 means the concentration that inhibits the measured activity by half. Low readings indicate higher potency, high ones lower potency.

Assay [1] deals with human coagulation proteome. As to the kind of experiment: Synthetic coagulation proteome assay (thrombin generation). It counts as biochemical. The procedure: This assay is carried out using an established protocol as described previously (Brummel-Ziedens 2008). Briefly, a pro-cofactor solution containing re-lipidated tissue factor (10 pM; molar ratio PCPS:TF=5000) was incubated with 4 μM PCPS in HBS (20 mM HEPES and 150 mM NaCl at pH 7.4) and 2 mM CaCl2 for 8 min at 37° C. Factor V (40 nM) and Factor VIII (1.4 nM) were then added to the mixture prior to initiation of the reaction to activate the protease zymogens in the blood coagulation cascade. The activation reaction was initiated by addition of the pro-cofactor solution to a zymogen solution containing prothrombin (2.8 μM), Factor VII (20 nM), Factor Vila (0.2 nM), FX (340 nM), Factor IX (180 nM), Factor XI (60 nM), TFPI (5 nM), antithrombin III (6.8 μM) […]
At selected time points after initiation of the reaction, 10 μL aliquots were withdrawn from the reaction mixture and quenched in 20 mM EDTA in HBS (pH 7.4) containing 0.2 mM Spectrozyme™ TH and assayed immediately for the proteolytic activity of thrombin. The hydrolysis of Spectrozyme™ TH was monitored by the change in absorbance at 405 nm using a SpectraMax™ plate reader (Molecular Devices Corp., Menlo Park, Calif., USA). Concentration of thrombin generated by the reaction was calculated from a standard curve prepared by serial dilutions of known concentrations of α-thrombin using the fibrinogen clotting assay (DiMaio 1990). Fibrinogen solution was freshly prepared by dissolving about 0.5% (w/v) fibrinogen in 50 mM Tris-HCl, 100 mM NaCl, 0.1% PEG-8000, pH 7.6 and filtering the resulting solution through a hydrophilic membrane of 0.45 μm polyvinylidene fluoride (PVDF) with low protein binding. The concentration of fibrinogen after filtration was determined by using the extinction coefficient of 15.0 for 1% fibrinogen at 280 nm. […] Thrombin-induced clotting of fibrinogen was followed at 25° C. by measuring the optical absorbance at 420 nm. The clotting time was obtained from extrapolation of the slope at the point of inflection to the zero absorbance baseline. […]

Assay [2] deals with FeCl3-induced venous thrombosis (vena cava). Description: FeCl3-induced venous model of thrombosis in rats (thrombus weight). It counts as in vivo. As to conditions: rat, single-bolus injection via tail vein. The procedure: Male Sprague-Dawley rats (250-310 g; Charles River Laboratories, St-Constant, QC, Canada) were acclimated for at least 3 days prior to the start of the study. Animals were housed in microisolator cages and were kept on a 12-hr light/dark cycle with constant temperature and humidity. Food and water were provided ad libitum. Various anti-thrombotic agents and peptides of this invention were dissolved in saline (0.9% sodium chloride) prior to use.
The FeCl3-induced venous model of thrombosis in rats was generated as described by Wang and Xu (Wang 2005) with some modifications (Couture 2011). Briefly, rats were anesthetized with a 2.5% isoflurane/oxygen mixture and placed on a heat source (35-37° C.). The vena cava was then exposed via a midline incision and the region between the renal and iliolumbar veins was isolated. […]
Protein content of the thrombus was also measured according to protocol by Wang (Wang 2005). […] Contents of amino acids and small peptides were measured at OD280 with digestion buffer used as a blank.
Statistical analysis was conducted using GraphPad™ Prism (GraphPad Software Inc., San Diego Calif., USA). Data were analyzed using one-way ANOVA with post-hoc Bonferroni correction for multiple comparisons. The relationship between thrombus weight and thrombus volume was determined by linear regression. […]

The target of the next assay is thrombin (Homo sapiens, UniProt P00734). Description: Fibrinogen clotting assay (concentration needed to double the clotting time = IC50). It counts as biochemical. As to conditions: for IC50: IC50 (anti-clotting). As for the experimental part:
The same enzyme kinetic assays were used to determine the inhibitory activities of MH2 and two MH2-derived peptides, MH2-allGS and MH2-GS (Table 4). Clotting assays were carried out to determine the inhibitory activities of the rest of the MH2 peptides by use of the protocols described previously (DiMaio 1990; Taka 2000; Su 2004). The assay employs bovine plasma fibrinogen dissolved at 0.1% in 50 mM Tris-Cl, 100 mM NaCl, 0.1% PEG-8000 at pH 7.6 (i.e. the clotting buffer). In addition to the use of optical densities or ODs (Gill 1989), concentrations of the peptide stock solutions were ranked (and corrected when necessary) by use of quantitative proton NMR spectroscopy (Cavaluzzi 2002). Each assay mixture contained a certain concentration of the peptide, and the reaction was started by the addition of human thrombin to a final concentration of approximately 0.5 nM. Optical absorbance of the assay mixtures was measured at 420 nm using the Spectramax™ plate reader. The onset clotting time was determined as an intersection of the baseline and the tangent line at point of inflection of the clotting curve. The concentration of an MH2 peptide needed to double the clotting time was defined as IC50 (DiMaio 1990) as illustrated in FIG. 4 and summarized in Table 4. The correlation between IC50 values and linker unfolding is similar to that for the BTI series of inhibitors (Table 3). […] (Table 3).

As to `CC[C@H](C)[C@H](N)C(=O)N[C@@H](CCCNC(=N)N)C(=O)N[C@@H](Cc1ccccc1)C(=O)N[C@H](C(=O)N[C@@H](CC(=O)O)C(=O)NCC(=O)N[C@@H](CCC(=O)O)C(=O)N[C@@H](Cc1c[nH]c2ccccc12)C(=O)N[C@H](C(=O)N[C@@H](Cc1c[nH]c2ccccc12)C(=O)N[C@@H](CC(=O)O)C(=O)N[C@@H](CC(=O)O)C(=O)N[C@@H](C)C(=O)N[C@H](C(=O)N[C@@H](CCCCN)C(=O)N[C@H](C(=O)N[C@@H](Cc1c[nH]c2ccccc12)C(=O)N[C@H](C(=O)N[C@@H](Cc1c[nH]c2ccccc12)C(=O)N[C@H](C(=O)N[C@@H](CCC(=O)O)C(=O)NCC(=O)N[C@@H](CC(=O)O)C(=O)N[C@@H](Cc1ccccc1)C(=O)N[C@@H](CCC(=O)O)C(=O)N[C@@H](CCC(=O)O)C(=O)N[C@H](C(=O)N1CCC[C@H]1C(=O)N[C@@H](CCC(=O)O)C(=O)N[C@@H](CCC(=O)O)C(=O)N[C@@H](Cc1ccc(O)cc1)C(=O)N[C@@H](CC(C)C)C(=O)N[C@@H](CCC(N)=O)C(=O)O)[C@@H](C)CC)[C@@H](C)O)[C@@H](C)O)[C@@H](C)O)[C@@H](C)O)[C@@H](C)O)[C@@H](C)O` [MH2-wZIP4], in assay [1] (37° C.), the “delay of thrombin burst / onset of thrombin generation” value is on record as “very little delay in the onset of thrombin generation”. In addition, the “delay of onset of thrombin generation with increase of bulk temperature” value in assay [1] (42° C. versus 37° C.) was “delaying effect is increased somewhat”. Besides, the “reduction of thrombus weight, venous model” value in assay [2] is “particularly efficacious in reducing the weight of local thrombus formation; also recorded: more effective than other anti-thrombotic agents (heparin, argatroban and bivalirudin)”. For the same compound, the Ki at thrombin is ~150 nM. Further, the IC50 is ~250 nM against thrombin (T = 25° C.) and 154 nM on thrombin (T = 37° C.).

For the origin of these results see patent US10155802B2, “Locally-active anticoagulants and anti-inflammatory agents” (priority 2011, dated 2018).
